According to patent US7638678B2, “Animal model for perimenopause and menopause and methods of inducing ovarian failure” (The Arizona Board of Regents, priority 2002, dated 2009):
“Also recorded” adds a separate entry of the source.

How the values were obtained:
caspase-3 = assay: Caspase-3 protease activity in isolated small pre-antral follicles; type: in vivo, B6C3F1 mice
Method: Follicle Isolation: Small preantral follicles (fraction 1, 25-100 μm in diameter), were prepared by gentle enzymatic dissociation of ovaries and hand sorting with micropipettes. Pools of follicles were prepared from both ovaries of six mice in each treatment (control or VCD) for each observation. Following isolation, follicles were washed twice with M199 medium and stored at −20° C.
Caspase-3 Protease Activity Measurement: The cleavage activity of caspase-3 was measured by a fluorescent activity assay. Briefly, the enzymatic reaction was carried out at 37° C. in protease assay buffer (20 mM HEPES, 100 mM NaCl, 10 mM dithiothreitol, 1 mM EDTA, 0.1% [w/v] 3-3 ([3-cholamidopropyl] dimethylammonio)-1-propanesulfanate, and 10% sucrose pH 7.2). Cellular protein (60-180 μg) was incubated with 50 μM of caspase-3 substrate, DEVD-AMC, at 37° C. for 60 minutes. Substrate cleavage was detected by measurement of the fluorescence of free 7-amino-4-methylcoumarin (AMC) with an F-2000 fluorescence spectrophotometer (Hitachi, Ltd., Tokyo, Japan) at 460 nm emission upon excitation at 380 nm.

[1] = tested on: liver enzymes AST and ALT, hepatocellular vacuolar degeneration, plasma lipids; assay: Assessment of hepatic function and plasma lipids; type: in vivo, B6C3F1 mice
Method: Assessment of Hepatic Function: Hepatocellular vacuolar degeneration and enzymatic activity of circulating aspartate aminotransferase (AST) and alanine aminotransferase (ALT) were determined by the Diagnostic Laboratory of the Arizona Health Sciences Center. Total cholesterol and triglycerides were quantified using Sigma reagents 401-25P and 344-20 respectively. HDL was measured by precipitating apoB-containing lipoproteins (Boehringer Mannheim reagent 543004) and assaying cholesterol in the supernatant fraction using the Sigma 401-25P reagent.

FSH = assay: Plasma FSH radioimmunoassay; type: in vivo, B6C3F1 mice; settings: 160 mg/kg 15 d
Method: (§1) Treatment: Immature mice (d28) were weighed and injected i.p. with either 80 mg/kg (1, 2, or 3 times daily), 160 mg/kg (1 or 2 times daily), or 240 mg/kg (once daily) with VCD or sesame oil (vehicle control, i.p.) for 15 d resulting in a total daily exposure of 80, 160, 240, or 320 mg/kg (n=6/group). All reagents were obtained from Sigma-Aldrich (St. Louis, Mo.). Estrous cycles of each animal were monitored daily by vaginal cytology from date of vaginal opening to persistent diestrus in VCD-treated mice, and from date of vaginal opening to d120 in controls. On d8, d10, d12, d14, d15, d30, d37, d46, d57 and d120, animals were weighed, euthanized by CO2 inhalation, and the ovaries, liver and trunk blood were collected. Plasma was separated from whole blood and stored at −20° C., and liver tissues were stored at −80° C. At each time point, adrenals, kidneys, uteri, ovaries, liver, and spleen were removed, grossly examined for lesions and wet tissue weights were recorded. Additional blood samples were collected by retro-orbital puncture and plasma was collected and stored on d58, d79, d91, and d100.
Hormone Assays: Plasma FSH was measured by radioimmunoassay (RIA). Rat FSH hormone antigen, rat FSH antiserum and mouse FSH reference preparation were purchased from the National Institute of Diabetes and Digestive and Kidney diseases. Iodination reagents (Iodo-Beads™28665, 28666) were purchased from Pierce (Rockford Ill.). Briefly, a standard curve was prepared and cold standards and samples (100 μl) were added to labeled tubes along with primary antibody (1:1400 dilution) and iodinated FSH. Samples were shaken and stored at 4 C overnight. On day 2, 100 μl secondary antibody (Sigma Chemical, cat. # R9133) was added (1:10) dilution along with 200 μl of 2% normal rabbit serum and incubated at room temperature for 5 minutes. Tubes were centrifuged for 15 minutes at 3000 rpm, supernatant was decanted and pellets were counted in a gamma counter for 1 minute each. All samples were run in duplicate. The mean sensitivity of the assay was 200 pg/ml and inter- and intra-assay coefficients of variation were 2.7% and 6.7% respectively. Plasma 17β-estradiol was measured in unextracted plasma by radioimmunoassay (Diagnostic Products Inc., CA). The mean sensitivity of the assay was 5.1 pg/ml. The intra-assay coefficient of variation was 5.3%. Circulating androstenedione was measured by specific RIA. Androstenedione standards and antibody were provided by Dr. Cheryl Dyer (Northern Arizona University). The mean sensitivity of the assay was 70 pg/ml with an inter-assay coefficient of variation of 5.3%. The results of all RIAs were calculated by four-parameter logistic analysis using the software AssayZap (BioSoft, Ferguson, Mo.). Results are the mean±SEM.

androstenedione = assay: Circulating androstenedione RIA; type: in vivo, B6C3F1 mice; settings: 160 mg/kg 15 d
Method: as §1, with “Plasma was separated from whole blood and stored at −20° C., and liver tissues were stored at −80° C.” left out, “Additional blood samples were collected by retro-orbital puncture and plasma was collected and stored on d58, d79, d91, and d100.” left out
Hormone Assays: Plasma FSH was measured by radioimmunoassay (RIA). […] Tubes were centrifuged for 15 minutes at 3000 rpm, supernatant was decanted and pellets were counted in a gamma counter for 1 minute each. […] Plasma 17β-estradiol was measured in unextracted plasma by radioimmunoassay (Diagnostic Products Inc., CA). […] Circulating androstenedione was measured by specific RIA. […] The results of all RIAs were calculated by four-parameter logistic analysis using the software AssayZap (BioSoft, Ferguson, Mo.). […]

femur = assay: Femur histology; type: in vivo, B6C3F1 mice; settings: 160 mg/kg 15 d, femora d58
Method: Histology and oocyte counting: Ovaries were trimmed of fat and placed in Bouin's fixative (2 hours), transferred to 70% ethanol, paraffin-embedded and serially sectioned (4-5 μm), mounted and stained with hematoxylin and eosin. In every 20th section (10-13 sections per ovary), pre-antral follicles were classified as primordial (oocyte surrounded by a single layer of flattened granulosa cells), primary (oocyte surrounded by a single layer of cuboidal cells), secondary (oocyte surrounded by multiple layers of granulosa cells) or antral follicles (follicles containing a fluid-filled antrum). Femora were collected on d58 from both control and VCD-treated animals, fixed in 4% paraformaldehyde, transferred to formaldehyde/formic acid (Cal-Rite, Richard Allan Scientific, Kalamazoo, […]., decalcified 24 hours, vacuum embedded in paraffin and 4.5 μm sections of distal metaphysis were prepared and stained with hematoxylin and eosin.

[2] = intravenous 14C-tagged VCD, cited from earlier work
ovarian follicles [3] = settings: cited from earlier work
ovarian follicles [4] = settings: cited from earlier work; remark: listed apart in the source

C1CC2OC2CC1C1CO1 (stereo not shown) [VCD, 4-vinylcyclohexene diepoxide]
Cleavage activity of caspase-3 in isolated small pre-antral follicles relative to controls (caspase-3; 160 mg/kg or 80 mg/kg i.p., 10 d, 4 hours after final treatment): increased
Caspase-3 activity in small pre-antral (primordial and primary) follicles (caspase-3; 160 mg/kg/day i.p., 10 d of dosing): 14.37 flourescent units/40 μg protein
Circulating alanine aminotransferase (ALT) ([1]; 160 mg/kg 15 d, d1-d46): not different from controls; also recorded: within the normal range
Circulating aspartate aminotransferase (AST) ([1]; 160 mg/kg 15 d, d1-d46): not different from controls; also recorded: within the normal range
Total plasma cholesterol, HDL and triglycerides ([1]; d10, d15 and d37): within the normal range
Occurrence of hepatocellular vacuolar degeneration ([1]; naive, vehicle-treated control or VCD-treated mice, any time): no difference
Plasma FSH (FSH; d37): 11.5 ± 5.7 ng/mL
Plasma FSH (FSH; d46): 14.3 ± 1.3 ng/mL
Plasma FSH (FSH; d58): 20.2 ± 1.2 ng/mL
Plasma FSH (FSH; d100): 25.8 ± 0.23 ng/mL
Plasma FSH (FSH; d120): 25.9 ± 1.1 ng/mL
Plasma FSH (FSH; d127 (data not shown)): increased (p<0.05) relative to controls
Relative abundance of androgen versus estrogen (androstenedione; d46): 97 % of androgen plus estrogen
Circulating androstenedione (androstenedione; d46, plasma pools): 0.73 ± 0.05 ng/mL
Femur morphology relative to controls (femur): enhanced distances from growth plate to distal metaphysis of the femur with increased lucane
Half life ([2]; blood): 4.4 min
Mean residence time [2]: 4.7 min
Activity on dermal application (ovarian follicles [3]; dermal application in acetone): active
Follicle loss after other routes of exposure (ovarian follicles [3]; oral, dermal, or inhalation exposure): follicle loss also occurs
Premature ovarian failure in long term studies (ovarian follicles [4]; F344 rats dosed with VCD): premature ovarian failure occurred within a year
Number of primordial and primary follicles compared to vehicle controls (ovarian follicles [4]; rats, 12 days of dosing): significant reduction
Numbers of secondary follicles (ovarian follicles [4]; rats, 30 days of dosing): significant reduction
